Key:
SH-SY5Y cells = experiment: Neuroprotection against iron/ascorbate-induced toxicity, MTT; format: cell-based, human; conditions: ferrous sulfate 5 mM and L-ascorbic acid 2.5 mM, 24 h, optimized concentration of each compound
Protocol: Cell viability, following treatment with the compounds, was determined using the colorimetric MTT (3-(4,5-dimethylthiazol-2-yl)-2,5-diphenyltetrazolium bromide) assay. The tested compounds (5a1-3, 5b1-3, 5c1-3) were dissolved in DMSO to produce stock solutions of 25 mM and stored at −20 °C. A concentration screening was performed for 0.5 µM to 20 µM final concentrations to choose the highest nontoxic concentration. SH-SY5Y human neuroblastoma cell line (ATCC-CRL-2266) was cultured in Dulbecco’s modified Eagle’s medium (DMEM) (Gibco-Invitrogen, Life Technologies Ltd., Waltham, MA, USA) with heat-inactivated fetal calf serum (10%), penicillin (50 U/mL) and streptomycin (50 µg/mL) at 37 °C with 5% CO2. Cells were plated at 0.15 × 10^6 cells/mL one day prior to the start of the experiment. The cells were then incubated with the appropriate concentration of the compounds for 24 h. After the incubation period, the cells were washed once with PBS and incubated with 200 µL MTT (0.5 mg/mL) for 2 h at 37 °C with 5% CO2. During this period, cellular dehydrogenase successfully metabolized MTT into formazan, which was then solubilized using 200 µL of 0.04 M HCl/isopropanol. Absorbance was measured at 570 nm.
To test whether the compounds have a protective effect against toxicity induced by Aβ1-42 or iron/ascorbate, the cells were pre-incubated for 1 h with each compound, followed by the addition of Aβ1-42 or iron/ascorbate and incubation for an additional 24 h. Aβ1-42 (Bachem, Torrance, CA, USA) was prepared in sterile water to produce a stock solution of 443 µM and added to the cells at a final concentration of 1 µM. […] All data are expressed as mean ± SEM of at least three independent experiments performed in duplicate. […]
Figure 5 Neuroprotective effect of RIV-IND compounds against cellular toxicity induced by iron/ascorbate (Fe/Asc) measured by MTT reduction ability on SH-SY5Y cells pretreated with iron/ascorbate for one hour, followed by a 24 h incubation with the optimized concentration of each compound. […]

[1] = target: T1, equine butyrylcholinesterase (eqBChE) (Equus caballus, UniProt P81908); experiment: BChE inhibition, adapted Ellman method; format: biochemical; conditions: for SI (selectivity index): IC50 (AChE)/IC50 (BChE); for IC50: eqBChE, mean of two independent experiments ± SD, read-out: BChE Inhib IC50
T1 construct: purchased Sigma-Aldrich (Steinheim, Germany)
T1 sequence (P81908 whole entry): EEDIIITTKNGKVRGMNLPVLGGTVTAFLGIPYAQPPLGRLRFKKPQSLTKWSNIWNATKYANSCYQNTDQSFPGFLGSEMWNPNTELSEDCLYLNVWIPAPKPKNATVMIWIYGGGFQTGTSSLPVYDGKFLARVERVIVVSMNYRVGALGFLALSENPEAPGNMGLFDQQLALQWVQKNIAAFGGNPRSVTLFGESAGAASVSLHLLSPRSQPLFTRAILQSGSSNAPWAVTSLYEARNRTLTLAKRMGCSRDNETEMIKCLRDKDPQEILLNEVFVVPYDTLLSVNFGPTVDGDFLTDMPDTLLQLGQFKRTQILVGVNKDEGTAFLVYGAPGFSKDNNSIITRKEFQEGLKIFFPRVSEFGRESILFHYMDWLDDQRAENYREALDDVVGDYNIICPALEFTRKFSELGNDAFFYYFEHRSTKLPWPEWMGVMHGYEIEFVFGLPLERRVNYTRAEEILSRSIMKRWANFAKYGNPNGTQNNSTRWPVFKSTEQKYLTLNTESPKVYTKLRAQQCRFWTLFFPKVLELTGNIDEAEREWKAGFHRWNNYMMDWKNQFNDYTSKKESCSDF
Protocol: The enzyme inhibition of electric eel acetylcholinesterase (eeAChE) and equine butyrylcholinesterase (eqBChE) by our compounds was evaluated through an adaptation of Elmman´s method using reagents from Sigma-Aldrich (Steinheim, Germany). Stock solutions of each compound (1 mg) in MeOH (1 mL) were prepared and then working solutions for each ligand were obtained by the corresponding dilution of the stock solutions. A control measurement with 5 replicates (without ligand) and a calibration curve of 5 points with 3 replicates per point was performed. The preparation of each solution involved fixed volumes of 4-(2-hydroxyethyl)-1-piperazine-ethanesulfonic acid (HEPES) and cholinesterase (eeAChE or eqBChE) with different volumes of ligand solution, and it was left to rest for 15 min immediately after adding the cholinesterase. A blank solution containing HEPES and MeOH was also prepared at the same time. […] The slope for each calibration point (absorbance versus reaction time) was determined and the inhibition for each compound was calculated by using the following equation: %Inhibition=100−(vi/v0×100) where vi is the reaction rate (slope) for each point of the calibrate with ligand and v0 is the initial reaction rate (slope) for the control point (without ligand). […] Experiments were performed twice for each compound.

Aβ1-42 = target: T2, Aβ1-42 (Homo sapiens, UniProt P05067); experiment: Inhibition of Aβ1-42 self-aggregation, thioflavin T fluorescence; format: biochemical; conditions: Cinhibitor = 20 µM, Aβ1-42 40 µM, 37 °C, 24 h, read-out: Aβ42 Self-Aggreg. Inhib
T2 construct: purchased Genecust, Boynes, France
T2 sequence (P05067 672-713 limits assumed): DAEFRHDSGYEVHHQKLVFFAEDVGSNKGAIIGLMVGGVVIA
Protocol: The Aβ peptide (Genecust, Boynes, France) was treated with 1,1,1,3,3,3-hexafluoropropan-2-ol (HFIP, Aldrich, Steinheim, Germany) and dissolved in a CH3CN/Na2CO3 (300 µM)/NaOH (250 µM) ([…], v/v/v) mixture in order to have a stable stock solution of Aβ1-42 with concentration 500 µM.
Solutions of the assayed compounds (0.5 mg/mL) were firstly prepared in 60% (v/v) DMSO/MeOH medium and then diluted in phosphate buffer (0.215 M, pH 8.0) to a concentration of 120 µM. The Aβ1-42 aggregation inhibition assays were performed according to a reported method based on the fluorescence emission of thioflavin T (ThT, Aldrich Steinheim, Germany). Therefore, Aβ1-42 (40 µM) was incubated at 37 °C for 24 h in phosphate buffer and in the presence or absence of each ligand (20 µM). Then, the samples were added to a 96-well plate with 180 µL of 5 µM ThT in 50 mM glycine-NaOH (pH 8.5) buffer. Blank samples were identically prepared for each concentration but in the absence of the peptide. The ThT fluorescence was measured at 445 nm (excitation) and 485 nm (emission). The percent of aggregation inhibition was calculated by the following equation:I% = 100 − (IFi/IF0 × 100), in which IFi and IF0 are the fluorescence intensities, in the presence and the absence of the tested compound, subtracted from the fluorescence intensities due to the respective blanks. The reported values were obtained as the mean ± SEM of two different experiments performed in duplicate.
The inhibitory capacity of the RIV-IND hybrids towards Aβ42 self-aggregation was evaluated in vitro by molecular fluorescence spectroscopy through the thioflavin T (ThT) method. In fact, since there is an increase in the absorbance and emission of ThT when it binds to amyloid fibrils, it is possible to determine the percent of Aβ42 self-aggregation (see Table 1). The assays were performed in the presence of 20 µM of inhibitor to overcome the solubility limitations of some compounds in the phosphate buffer aqueous medium.

Q: What does the source list for CCN(C)C(=O)Oc1cccc(NC(=O)c2cc3cccc(O)c3[nH]2)c1 [Compound 5a3, 3-(7-Hydroxy-1H-indole-2-carboxamido)phenyl ethyl(methyl)carbamate]?
A: neuroprotective effect against toxicity induced by iron/ascorbate (SH-SY5Y cells): also present a neuroprotective effect; SI (selectivity index) [1]: 1.05; IC50 [1]: 10.4 ± 0.4 µM; inhibition at 20 µM (Aβ1-42): 50.3%

Q: Which results are given for CCN(C)C(=O)Oc1cccc(CNC(=O)c2cc3ccccc3[nH]2)c1 [Compound 5b1, 3-((1H-indole-2-carboxamido)methyl)phenyl ethylmethylcarbamate]?
A: neuroprotective effect against toxicity induced by iron/ascorbate (SH-SY5Y cells): also present a neuroprotective effect; SI (selectivity index) [1]: 9.4; IC50 [1]: 8.3 ± 0.1 µM; inhibition at 20 µM (Aβ1-42): 19.9%

Reference: article PMC10892719 (Pharmaceutics, 2024)
